Here are results for two molecules from patent publication US9012459B2, “Monohydrate crystalline form of 3-(5-(4-(3-fluoropropyl)-piperazin-1-yl)benzimidazol-2-yl)-1-azaazulen-2-one, preparation, and pharmaceutical composition thereof” (Industrial Technology Research Institute, priority 2012, dated 2015).

Read-outs that look alike come from different tables or passages of the source.

Data set [1] can be described thus: hygroscopicity test (weight gain). In kind it is physicochemical. Conditions: for Weight gain (%): 1 day, temperature 22.5/21.8 ° C., relative humidity 70/71 %; for hygroscopicity: Hydroscopicity test. As to the method: The monohydrate form of Formula I (300 mg) was dissolved at room temperature in the mix solution of CH2Cl2 (50 mL) and methanol (50 mL). Na2SO4 (10 g) was then added into the solution to absorb water with stir for 2 hours.

Data set [2] in a line: stability examination by slurry test (XRPD). In kind it is physicochemical. The settings on record: stirred at 25° C. for 3 days in ethyl acetate, heptanes or isopropanol. As to the method: 1. Formula I-EA: the monohydrate form of Formula I (57 mg) and Ethyl acetate (1 mL) was provided.
2. Formula I-Heptane: the monohydrate form of Formula I (51 mg) and Heptanes (1 mL) was provided: […]
3. Formula I-IPA: the monohydrate form of Formula I (53 mg) and 1 mL of Isopropanol (1 mL) was provided.
The solutions provided above were stirred at 25° C. for 3 days and then a centrifugation was performed to collect the solid with centrifuge in each. Each of the collected solids was dried and analyzed using XPRD. […] This is a pre-test for the subsequent formulation, which is aimed to confirm that the monohydrate form wouldn't change with the incorporation of solvents. Therefore, the solvents used herein may not be the same as those crystallized solvents used in the embodiments.

Data set [3] in a line: pharmacokinetics profile and bioavailability, PO dosing. The class given is in vivo. The settings on record: PO 30 mg/kg, male SD rat; monohydrate in capsule and in 0.5% methyl cellulose suspension, sample #4 in 0.5% methyl cellulose. As to the method: The pharmacokinetics profile and the bioavailability were tested by a PO (per os) dosing with 30 mg/kg of sample of Example 1 (monohydrate), good in capsule (Tropac, 9el) and in bottle (0.5% methyl cellulose suspension) for male SD rat; and also a PO dosing with 30 mg/kg of sample #4 (mixed crystalline form) in 0.5% methyl cellulose for male SD rat as a treatment control. With the result from the above testing, the preferable PO dosing for first in human model was determined.
Generally, the PK profile of the crystalline form with good crystallinity and stability would be worse than that of amorphous form and complex form.
The terms used in FIG. 10 were listed as follows, PO (per os) represents taken by mouth; Cmax (ng/mL) represents the peak plasma concentration of a drug after administration; Tmax (hr) represents the time to reach Cmax; T1/2 (hr) represents elimination half-life, which represents the time required for the concentration of the drug to reach half of its original value; and AUC (hr*ng/mL) [area under the curve] represents the integral of the concentration-time curve (after a single dose or in steady state), and the bioavailability could be deducted from AUC values.

A short description of data set [4]: solubility in different pH buffer solutions (HPLC). The class given is physicochemical. The settings on record: buffer solution, thermodynamic from solid, read-out: Concentration (solubility).
The nature of data set [5]: stability test (XRPD and HPLC over time). The settings on record: about 25-30° C. and 40%-45% RH; after preparation, one, two and four months. In kind it is physicochemical. As to the method:
An appropriate amount of samples were prepared according to the method of Example 1. A XPRD analysis and a HPLC analysis were performed, under the environment of about 25-30° C. and 40%-45% RH, after the preparation of the samples (FIGS. 7a and 8a), and after one month (FIGS. 7b and 8b), two months (FIGS. 7c and 8c), and four months (FIGS. 7d and 8d) respectively from the time of preparation, and the results were examined to observe their differences over time.

As to `O=c1[nH]c2cccccc-2c1-c1nc2ccc(N3CCN(CCCF)CC3)cc2[nH]1` [anhydrate form, 3-(5-(4-(3-fluoropropyl)piperazin-1-yl)benzimidazol-2-yl)-1-azaazulen-2-one], in data set [1], the “Weight gain (%)” value was 3.81% and the hygroscopicity is on record as 3.81%.
Consider `O=c1[nH]c2cccccc-2c1-c1nc2ccc(N3CCN(CCCF)CC3)cc2[nH]1` [monohydrate form of Formula I, 3-(5-(4-(3-fluoropropyl)piperazin-1-yl)benzimidazol-2-yl)-1-azaazulen-2-one], for which the “crystalline form stability in slurry (XRPD vs original form)” value in data set [2] is recorded as “stable”. The “PK profile (Cmax, Tmax, T1/2, AUC) compared between the 3 treatments” value in data set [3] is “no statistically significant difference”. For the same molecule, the “Weight gain (%)” value in data set [1] was 1.57%. The molecule further had a hygroscopicity in data set [1] of 1.57%. The solubility at 24 h in data set [4] (pH 1.2, simulated gastric fluid, buffer pH1.2, 300 rpm) is 26300 µg/mL; in data set [4] (pH 5, aqueous buffer, buffer pH5, 300 rpm) it was 263 µg/mL; in data set [4] (pH 6.8, aqueous buffer, buffer pH6.8, 300 rpm), 3.7 µg/mL; in data set [4] (pH 7.4, aqueous buffer, buffer pH7.4, 300 rpm), 2.4 µg/mL. In data set [5], the “stability (XRPD and HPLC differences over time)” value is “stable and substantially the same over four months”.
